Where only a bound is given, the exact number is not on record here.

Our source for the IC50 values is patent US20220274979A1 (Bayer Pharma Aktiengesellschaft, priority 2018, published 2022).

Experiment [1] has as its target T1, hK-RasG12C - hSOS1 interaction (Homo sapiens, UniProt Q07889).
T1 construct: hSOS1 (amino acid 564-1049); made in house; host or cells: E. coli BL21 (DE3)
T1 sequence (Q07889 with tags, fused parts or gaps): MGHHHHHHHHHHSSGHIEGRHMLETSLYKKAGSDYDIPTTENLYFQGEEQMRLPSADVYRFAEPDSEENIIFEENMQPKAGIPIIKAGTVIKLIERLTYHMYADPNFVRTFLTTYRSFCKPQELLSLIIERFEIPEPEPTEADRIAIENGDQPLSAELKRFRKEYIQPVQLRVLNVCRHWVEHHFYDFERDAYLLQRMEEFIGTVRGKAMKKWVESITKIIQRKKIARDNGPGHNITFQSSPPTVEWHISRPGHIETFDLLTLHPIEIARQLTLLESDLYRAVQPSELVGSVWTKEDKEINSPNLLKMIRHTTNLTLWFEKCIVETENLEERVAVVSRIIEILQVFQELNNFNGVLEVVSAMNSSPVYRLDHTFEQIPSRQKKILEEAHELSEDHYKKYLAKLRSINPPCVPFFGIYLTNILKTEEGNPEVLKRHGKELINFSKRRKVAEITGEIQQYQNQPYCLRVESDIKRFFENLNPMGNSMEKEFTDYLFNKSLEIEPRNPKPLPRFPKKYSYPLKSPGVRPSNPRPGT
The experiment in a line: Biochemical Assay 1: hK-RasG12C interaction assay with hSOS1 (HTRF). The class given is binding. The settings on record: values expressed as IC50. The procedure, abridged:
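HTRF signal between GST-hK-RasG12C (10 nM working solution, anti-GST-Eu) and His-hSOS1 (20 nM working solution, anti-6His-XL665) was read in HEPES pH 7.4 buffer with 10 mM EDTA, 1 mM DTT and 100 mM KF at 20 °C.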

Experiment [2] has as its target T2, Epidermal Growth Factor Receptor (EGFR) (Homo sapiens, UniProt P00533).
T2 construct: purchased Sigma-Aldrich E3641
As to the kind of experiment: EGFR kinase assay (TR-FRET). The class given is biochemical. The settings on record: 10 μM ATP; read-out: EGFR kinase inhibition IC50. The procedure, abridged:
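EGFR purified from A431 cells pre-incubated 15 min with compound, then reacted 20 min at 22 °C with 10 μM ATP and 1 μM biotinylated peptide (final) in HEPES pH 7.0 with Mg2+/Mn2+. Phosphopeptide detected by TR-FRET (Tb anti-phosphotyrosine/streptavidin-XL665), 665/620 nm emission ratio.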
(In TR-FRET formats the signal depends on donor and acceptor labels being close together.)

T2 sequence (P00533 25-1210): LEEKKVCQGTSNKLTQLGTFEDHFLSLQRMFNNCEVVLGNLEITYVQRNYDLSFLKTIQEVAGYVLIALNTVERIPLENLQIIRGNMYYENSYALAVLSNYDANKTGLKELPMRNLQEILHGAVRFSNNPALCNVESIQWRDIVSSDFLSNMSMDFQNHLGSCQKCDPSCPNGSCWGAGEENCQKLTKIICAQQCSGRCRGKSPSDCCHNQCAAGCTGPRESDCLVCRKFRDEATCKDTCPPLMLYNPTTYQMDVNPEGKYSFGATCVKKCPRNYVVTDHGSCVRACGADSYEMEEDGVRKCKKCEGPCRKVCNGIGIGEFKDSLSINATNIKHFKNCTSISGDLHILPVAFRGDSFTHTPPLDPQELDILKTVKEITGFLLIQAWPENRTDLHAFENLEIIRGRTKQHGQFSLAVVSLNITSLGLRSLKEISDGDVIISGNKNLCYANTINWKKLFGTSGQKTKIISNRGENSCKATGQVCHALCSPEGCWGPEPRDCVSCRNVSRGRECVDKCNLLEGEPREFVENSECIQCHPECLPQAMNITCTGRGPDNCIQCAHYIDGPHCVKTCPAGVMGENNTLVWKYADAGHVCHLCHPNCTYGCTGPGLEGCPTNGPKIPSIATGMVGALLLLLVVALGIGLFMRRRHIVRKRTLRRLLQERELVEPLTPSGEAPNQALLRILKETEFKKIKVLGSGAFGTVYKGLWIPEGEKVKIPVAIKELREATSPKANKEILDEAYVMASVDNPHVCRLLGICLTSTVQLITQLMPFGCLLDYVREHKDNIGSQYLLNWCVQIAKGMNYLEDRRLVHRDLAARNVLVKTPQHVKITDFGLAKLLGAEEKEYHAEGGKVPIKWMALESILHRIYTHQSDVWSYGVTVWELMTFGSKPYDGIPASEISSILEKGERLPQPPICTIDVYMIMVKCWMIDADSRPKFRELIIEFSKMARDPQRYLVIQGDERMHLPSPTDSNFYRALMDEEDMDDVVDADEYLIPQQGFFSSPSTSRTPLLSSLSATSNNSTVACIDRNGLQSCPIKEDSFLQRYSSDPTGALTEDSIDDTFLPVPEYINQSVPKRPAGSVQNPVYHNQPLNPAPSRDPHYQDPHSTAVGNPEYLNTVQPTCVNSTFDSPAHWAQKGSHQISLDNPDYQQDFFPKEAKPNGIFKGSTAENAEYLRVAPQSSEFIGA

Broadly, the IC50 is the concentration at which inhibition is half-maximal. In the case of `CC(=O)NCCNc1cc2c(N[C@H](C)c3cccc(Br)c3)nc(C)nc2cn1` [Example 44, N-{2-[(4-{[(1R)-1-(3-bromophenyl)ethyl]amino}-2-methylpyrido[3,4-d]pyrimidin-6-yl)amino]ethyl}acetamide], the half-inhibitory concentration (IC50) in experiment [1] is 985 nM; in experiment [2], more than 20000 nM.
In the case of `Cc1nc(N[C@H](C)c2cccc(Br)c2)c2cc(N3CCNC(=O)C3)ncc2n1` [Example 45], the 50% inhibitory concentration (IC50) in experiment [1] was 91.8 nM; in experiment [2] it was more than 20000 nM.
The matching figures for `Cc1nc(N[C@H](C)c2cccc(Br)c2)c2cc(NC3CCOCC3)ncc2n1` [Example 46]: 1290 nM and more than 20000 nM.
Turning to `Cc1nc(NC(C)c2ccc(-c3ccccc3CN(C)C)s2)c2cc(NCCN3CCOCC3)ncc2n1` (stereo not drawn) [Example 48], the half-inhibitory concentration (IC50) in experiment [1] was 38.8 nM; in experiment [2], more than 20000 nM.
`Cc1nc(N[C@H](C)c2cccc(Br)c2)c2cc(NCCn3cccn3)ncc2n1` [Example 49, N4-[(1R)-1-(3-bromophenl)pethyl]-2-methyl-N6-[2-(1H-pyrazol-1-yl)ethyl]pyrido[3,4-d]pyrimidine-4,6-diamine]: the IC50 is 1210 nM in experiment [1] and more than 20000 nM in experiment [2].
The corresponding values for `CC(=O)NCCNc1cc2c(NC(C)c3ccc(-c4ccccc4CN(C)C)s3)nc(C)nc2cn1` (stereo not drawn) [Example 51, N-{2-[(4-{[1-(5-{2-[(dimethylamino)methyl]phenyl}thiophen-2-yl)ethyl]amino}-2-methylpyrido[3,4-d]pyrimidin-6-yl)amino]ethyl}acetamide] are 32.9 nM and more than 20000 nM.
For `Cc1nc(NC(C)c2ccc(-c3ccccc3CN(C)C)s2)c2cc(Oc3cccc(O)c3)ncc2n1` (stereo not drawn) [Example 52, 3-[(4-{[1-(5-{2-[(dimethylamino)methyl]phenyl}thiophen-2-yl)ethyl]amino}-2-methylpyrido[3,4-d]pyrimidin-6-yl)oxy]phenol], the IC50 in experiment [1] is 202 nM; in experiment [2], more than 20000 nM.
On to `Cc1nc(NC(C)c2ccc(-c3ccccc3CN(C)C)s2)c2cc(NC3CCOCC3)ncc2n1` (stereo not drawn) [Example 53, N4-[1-(5-{2-[(dimethylamino)methyl]phenyl}-2-thienyl)ethyl]-2-methyl-N6-(tetrahydro-2H-pyran-4-yl)pyrido[3,4-d]pyrimidine-4,6-diamine], for which the values for the IC50 in experiment [1] and in experiment [2] were 54.7 nM and more than 20000 nM, respectively.
With `Cc1nc(NC(C)c2ccc(-c3ccccc3CN(C)C)s2)c2cc(NCCn3cccn3)ncc2n1` (stereo not drawn) [Example 54, N4-[1-(5-{2-[(dimethylamino)methyl]phenyl}-2-thienyl)ethyl]-2-methyl-N6-[2-(1H-pyrazol-1-yl)ethyl]pyrido[3,4-d]pyrimidine-4,6-diamine], the IC50 in experiment [1] was 49.6 nM; in experiment [2], more than 20000 nM.
With `Cc1nc(NC(C)c2ccc(-c3ccccc3CN(C)C)s2)c2cc(NCCn3ccnc3)ncc2n1` (stereo not drawn) [Example 56, N4-[1-(5-{2-[(dimethylamino)methyl]phenyl}-2-thienyl)ethyl]-N6-[2-(1H-imidazol-1-yl)ethyl]-2-methylpyrido[3,4-d]pyrimidine-4,6-diamine], the results for the half-inhibitory concentration (IC50) in experiment [1] and in experiment [2] were 39.4 nM and more than 20000 nM, respectively.
Take `COc1cc2c(N[C@H](C)c3cccc(Br)c3)nc(C)nc2cn1` [Example 57, N-[(1R)-1-(3-bromophenyl)ethyl]-6-methoxy-2-methylpyrido[3,4-d]pyrimidin-4-amine]: the 50% inhibitory concentration (IC50) in experiment [1] is 1970 nM; in experiment [2] it was more than 20000 nM.
The matching figures for `Cc1nc(NC(C)c2ccc(-c3ccccc3CN(C)C)s2)c2cc(Oc3cccc(C4=NCCN4C)c3)ncc2n1` (stereo not drawn) [Example 58, N-[1-(5-{2-[(dimethylamino)methyl]phenyl}thiophen-2-yl)ethyl]-2-methyl-6-[3-(1-methyl-4,5-dihydro-1H-imidazol-2-yl)phenoxy]pyrido[3,4-d]pyrimidin-4-amine]: 117 nM and more than 20000 nM.
